According to BindingDB's records for doi:10.3109/14756366.2012.668539 (Federal University of São Paulo, 2013):

Molecular target: T1, Papain (Carica papaya, UniProt P00784)
T1 sequence (P00784 whole entry): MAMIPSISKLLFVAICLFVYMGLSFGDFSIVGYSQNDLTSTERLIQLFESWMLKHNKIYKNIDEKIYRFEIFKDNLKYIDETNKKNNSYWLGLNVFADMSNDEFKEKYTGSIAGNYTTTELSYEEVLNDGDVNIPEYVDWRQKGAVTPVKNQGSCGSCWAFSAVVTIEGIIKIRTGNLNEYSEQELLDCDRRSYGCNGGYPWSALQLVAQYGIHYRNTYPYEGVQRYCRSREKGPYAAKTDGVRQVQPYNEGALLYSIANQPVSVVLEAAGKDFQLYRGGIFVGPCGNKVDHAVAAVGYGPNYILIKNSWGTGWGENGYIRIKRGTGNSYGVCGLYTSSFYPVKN
Test: Kinetic Assay
Description: To characterize the type and extent inhibition of papain by fukugetin, papain (0.04 nM) was incubated with four concentrations of fukugetin (1.5, 3, 6 and 12μM). For cruzain, enzyme concentration was 12 nM and inhibitor concentrations varied from 1 μM to 10 μM. Analysis of enzyme kinetic data was carried out using the Lineweaver-Burk plot30 in Grafit 5.0 software. Hydrolytic activity was measured […], mixing fukugetin and enzymes by addition growingconcentrations of Cbz-Phe-Arg-MCA (0.5-22 μM).

For `O=C1c2c(O)cc(O)cc2OC(c2ccc(O)cc2)C1c1c(O)cc(O)c2c(=O)cc(-c3ccc(O)c(O)c3)oc12` (stereo unspecified) [Fukugetin], which Ki is on record?
The Ki was 13.4 µM.
